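Step 1: Grow cells in 96-well plates. Step 2: Expose to compound for 48 hours at 5 concentrations. Step 3: Interpolate endpoints linearly; if unreached, use highest concentration. GI50: concentration for 50% inhibition of growth. TGI denotes the concentration required for complete inhibition of growth.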
How the values were obtained:
Test in all cases: NCI tumour cell line growth inhibition, 48 h
[1] = tested on: T-47D breast
[2] = tested on: CCRF-CEM leukemia
[3] = tested on: HCC-2998 colon
[4] = tested on: U251 CNS
[5] = tested on: DU-145 prostate
[6] = tested on: SF-268 CNS
[7] = tested on: MDA-MB-435
[8] = tested on: ACHN renal
[9] = tested on: HCT-116 colon
[10] = tested on: NCI-H226 lung
[11] = tested on: PC-3 prostate
[12] = tested on: HOP-92 NSCLC
[13] = tested on: MCF7 breast
[14] = tested on: NCI/ADR-RES ovarian
[15] = tested on: RPMI-8226 leukemia
[16] = tested on: A549 NSCLC
[17] = tested on: NCI-H23 lung
[18] = tested on: COLO 205 colon
[19] = tested on: HT29 colon
[20] = tested on: M14 melanoma
[21] = tested on: LOX IMVI melanoma
[22] = tested on: MOLT-4 leukemia
[23] = tested on: HL-60(TB) leukemia
[24] = tested on: NCI-H460 lung
[25] = tested on: KM12 colon
[26] = tested on: SN12C renal
[27] = tested on: SF-539 CNS
[28] = tested on: IGROV1 ovarian
[29] = tested on: HCT-15 colon
[30] = tested on: CAKI-1 renal
[31] = tested on: SK-OV-3 ovarian
[32] = tested on: SF-295 CNS
[33] = tested on: BT-549 breast
[34] = tested on: SR leukemia
[35] = tested on: SK-MEL-28 melanoma
[36] = tested on: HS 578T breast
[37] = tested on: TK-10 renal
[38] = tested on: NCI-H522 lung
[39] = tested on: UACC-62 melanoma
[40] = tested on: A498 renal
[41] = tested on: SK-MEL-2 melanoma
[42] = tested on: UO-31 renal
[43] = tested on: SNB-75 CNS
[44] = tested on: HOP-62 NSCLC
[45] = tested on: SW-620 colon
[46] = tested on: SNB-19 CNS
[47] = tested on: MDA-MB-231 breast
[48] = tested on: SK-MEL-5 melanoma
[49] = tested on: UACC-257 melanoma
[50] = tested on: OVCAR-4 ovarian
[51] = tested on: 786-0 renal
[52] = tested on: OVCAR-3 ovarian

Molecule `COc1ccc2nc3cc(Cl)ccc3c(NCCCCCN3CCCCC3)c2c1` has a GI50 [1] of 1940 nM, a TGI [1] of 4580 nM and a GI50 [2] of 73 nM. It also gave a TGI [2] of 6380 nM, a GI50 [3] of 67.3 nM and a TGI [3] of 2050 nM. The GI50 [4] was 1310 nM, the TGI [4] was 3100 nM and the GI50 [5] was 55.8 nM. The TGI [5] was 2460 nM, the GI50 [6] was 1030 nM and the TGI [6] was 2880 nM. For the same molecule, the GI50 [7] was 1370 nM, the TGI [7] was 2730 nM and the GI50 [8] was 44.7 nM. It also gave a TGI [8] of 2840 nM, a GI50 [9] of 43.5 nM and a TGI [9] of 1910 nM. It also gave a GI50 [10] of 1100 nM, a TGI [10] of 3330 nM and a GI50 [11] of 1070 nM. For the same molecule, the TGI [11] was 4510 nM, the GI50 [12] was 1620 nM and the TGI [12] was 4100 nM. The GI50 [13] was 40.8 nM, the TGI [13] was 2130 nM and the GI50 [14] was 82.5 nM. For the same molecule, the TGI [14] was 4240 nM, the GI50 [15] was 1950 nM and the TGI [15] was 6320 nM. For the same molecule, the GI50 [16] was 68 nM, the TGI [16] was 2730 nM and the GI50 [17] was 1090 nM. For the same molecule, the TGI [17] was 2850 nM, the GI50 [18] was 66.8 nM and the TGI [18] was 2320 nM. It also gave a GI50 [19] of 33.8 nM, a TGI [19] of 1590 nM and a GI50 [20] of 1650 nM. The TGI [20] was 3150 nM, the GI50 [21] was 35.5 nM and the TGI [21] was 1440 nM. For the same molecule, the GI50 [22] was 41.6 nM, the TGI [22] was 3120 nM and the GI50 [23] was 1550 nM. The TGI [23] was 3540 nM, the GI50 [24] was 36.1 nM and the TGI [24] was 1450 nM. For the same molecule, the GI50 [25] was 57.6 nM, the TGI [25] was 2700 nM and the GI50 [26] was 76.3 nM. The TGI [26] was 4700 nM, the GI50 [27] was 55.9 nM and the TGI [27] was 2290 nM. The GI50 [28] was 88.8 nM, the TGI [28] was 4100 nM and the GI50 [29] was 41.2 nM. For the same molecule, the TGI [29] was 1850 nM, the GI50 [30] was 1330 nM and the TGI [30] was 4030 nM. The GI50 [31] was 1260 nM, the TGI [31] was 3100 nM and the GI50 [32] was 50.2 nM. It also gave a TGI [32] of 1910 nM, a GI50 [33] of 1720 nM and a TGI [33] of 3280 nM. The GI50 [34] was 31.4 nM, the TGI [34] was 2130 nM and the GI50 [35] was 1860 nM. The TGI [35] was 3670 nM, the GI50 [36] was 1820 nM and the TGI [36] was 4500 nM. The GI50 [37] was 1570 nM, the TGI [37] was 3660 nM and the GI50 [38] was 1440 nM. The TGI [38] was 3270 nM, the GI50 [39] was 2070 nM and the TGI [39] was 3930 nM. It also gave a GI50 [40] of 11.4 nM, a TGI [40] of 1880 nM and a GI50 [41] of 2220 nM. It also gave a TGI [41] of 4040 nM, a GI50 [42] of 1430 nM and a TGI [42] of 3700 nM. For the same molecule, the GI50 [43] was 1270 nM, the TGI [43] was 2560 nM and the GI50 [44] was 65.4 nM. It also gave a TGI [44] of 2630 nM, a GI50 [45] of 36.9 nM and a TGI [45] of 2160 nM. It also gave a GI50 [46] of 1140 nM, a TGI [46] of 5540 nM and a GI50 [47] of 1010 nM. For the same molecule, the TGI [47] was 3100 nM, the GI50 [48] was 1600 nM and the TGI [48] was 2960 nM. It also gave a GI50 [49] of 1940 nM, a TGI [49] of 3770 nM and a GI50 [50] of 86 nM. The TGI [50] was 3010 nM, the GI50 [51] was 56 nM and the TGI [51] was 1950 nM. It also gave a GI50 [52] of 123 nM and a TGI [52] of 2240 nM.
